Measured values as given in US10149838B2, “Small molecule securinine and norsecurinine analogs and their use in inhibiting myeloperoxidase” (MiRx Pharmaceuticals, LLC, priority 2013, dated 2018).

How the values were obtained:
MPO [1] = target: T1, MPO (Homo sapiens, UniProt P05164); test: Myeloperoxidase Inhibitor Screening Assay Kit (Cayman Chemical), chlorination activity; format: biochemical; set-up: purchased Cayman Chemical 700170; concentration or dose not given beside the values; conditions: Table 1; MPO inhibitory activity
T1 sequence (P05164 49-745): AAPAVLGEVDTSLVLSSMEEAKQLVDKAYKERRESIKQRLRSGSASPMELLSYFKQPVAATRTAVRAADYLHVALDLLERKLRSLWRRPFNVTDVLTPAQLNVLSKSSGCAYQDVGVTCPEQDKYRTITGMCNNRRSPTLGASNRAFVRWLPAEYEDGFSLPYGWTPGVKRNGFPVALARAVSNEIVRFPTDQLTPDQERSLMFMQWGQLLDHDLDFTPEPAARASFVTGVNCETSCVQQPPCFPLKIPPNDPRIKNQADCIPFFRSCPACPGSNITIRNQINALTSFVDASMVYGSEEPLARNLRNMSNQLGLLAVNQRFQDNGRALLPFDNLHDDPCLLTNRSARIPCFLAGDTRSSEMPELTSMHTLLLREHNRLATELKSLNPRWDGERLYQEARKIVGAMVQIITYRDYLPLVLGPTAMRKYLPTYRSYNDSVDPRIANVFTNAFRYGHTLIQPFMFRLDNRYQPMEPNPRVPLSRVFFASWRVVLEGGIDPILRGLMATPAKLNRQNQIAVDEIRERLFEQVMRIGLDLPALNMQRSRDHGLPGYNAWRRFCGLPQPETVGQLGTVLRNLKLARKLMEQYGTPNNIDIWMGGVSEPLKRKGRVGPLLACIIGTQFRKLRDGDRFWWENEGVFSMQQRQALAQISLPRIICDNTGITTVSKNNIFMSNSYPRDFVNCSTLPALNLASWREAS
Method: The columns are represented as follows: A: Blank; B: Commercial inhibitor; C; Another commercial inhibitor (sc-204107); D: Securinine; E: INVS-MG-98B, F: 14-Iodosecurinine; G; INVS-MG-106B.
The analogs described herein were contacted against MPO and the biological activity was assessed. Tables 1 and 2 show representative biological activity examples and that the listed compounds are potent inhibitors of MPO, specifically that the analogs inhibit chlorination activity. The compounds were tested for MPO inhibitory activity using the Myeloperoxidase Inhibitor Screening Assay Kit (Cayman Chemical Cat #700170) as described in the manufacturers manual
Studies were then aimed at establishing dose dependent relative chlorination activity results of securinine and norsecurinine analogs. As depicted in FIG. 4, the analogs of the present invention were extremely potent in inhibiting chlorination.

some cell lines = test: MTT cell survival assay (Roche), cell lines not specified; format: cell-based; conditions: cell culture conditions
Excerpt: The securinine analog MPO inhibitors have favorable in vitro and in vivo toxicity profiles.

MPO [2] = target: T1, MPO; test: Biotin pull-down with streptavidin magnetic beads from HL60 cells, SDS-PAGE, MS and western blot; format: binding; set-up: endogenous in cells; host or cells: HL60; conditions: 10 μM, 2 hr, biotin-conjugated
Method: Only MPO (red) and H2O2 promoted a shift in the Soret peak, formation of a new band at 630 nm (blue).
It was next set about to investigate the molecular target of the analogs (FIG. 6A). Cultured HL60 cells were treated with either Biotin/Biotin-INVMG1 (securinine) (10 μM) for 2 hr and pull-down experiments using streptavidin magnetic beads were used to pulldown bound molecules, followed by SDS-PAGE analysis (FIG. 6B). […] This 80 kDa protein band was excised, digested with trypsin, and the tryptic digests then analyzed using Mass Spectroscopy. […] The proteins bound to streptavidin beads were next separated using SDS-PAGE and incubated then with anti-human MPO antibody. […] To further confirm the binding of INVMG1 to MPO, the MPO enzyme was incubated with and without INVMG184B/H2O2, and analyzed absorption maxima using UV/visible.

SMILES	% Activity (MPO [1]) [%]	further results
O=C1C=C2C[C@H](SCC(F)(F)F)[C@@H]3C[C@@]2(O1)[C@H]1CCCCN31 (stereo in doubt) [5B]	83	
CC(C)CSC1CC2=CC(=O)O[C@@]23C[C@@H]1N1CCCC[C@@H]13 (stereo in doubt) [57A]	86	
CC(C)CS[C@H]1CC2=CC(=O)O[C@@]23C[C@@H]1N1CCCC[C@@H]13 (stereo in doubt) [57B]	2	
O=C1C=C2CC(SC34CC5CC(CC(C5)C3)C4)[C@@H]3C[C@@]2(O1)[C@H]1CCCCN31 (stereo partly drawn) [4A]	1	
O=C1CC2(SCC(F)(F)F)CC(SCC(F)(F)F)[C@@H]3C[C@@]2(O1)[C@H]1CCCCN31 (stereo partly drawn) [5A]	78	
O=C1C=C2CC(N3CCC(F)(F)C3)[C@@H]3C[C@@]2(O1)[C@H]1CCCCN31 (stereo partly drawn) [9A]	46	
O=C1C=C2CC(SCC3CCCCCC3)[C@@H]3C[C@@]2(O1)[C@H]1CCCCN31 (stereo partly drawn) [16A]	91	
CCCCCCCSC1CC2=CC(=O)O[C@@]23C[C@@H]1N1CCCC[C@@H]13 (stereo partly drawn) [19A]	38	
CCN(CC)CCSC1CC2=CC(=O)O[C@@]23C[C@@H]1N1CCCC[C@@H]13 (stereo partly drawn) [21B]	30	
O=C1C=C2CC(NCC3CC3)[C@@H]3C[C@@]2(O1)[C@H]1CCCCN31 (stereo partly drawn) [25B]	99	
O=C1C=C2CC(NC3CC3)[C@@H]3C[C@@]2(O1)[C@H]1CCCCN31 (stereo partly drawn) [26A]	83	
O=C1C=C2CC(NC3CCCC3)[C@@H]3C[C@@]2(O1)[C@H]1CCCCN31 (stereo partly drawn) [27B]	46	
O=C1C=C2CC(NC3CCCCC3)[C@@H]3C[C@@]2(O1)[C@H]1CCCCN31 (stereo partly drawn) [28B]	86	
O=C1C=C2CC(NC3CCCCCC3)[C@@H]3C[C@@]2(O1)[C@H]1CCCCN31 (stereo partly drawn) [29A]	1	
O=C1C=C2CC(NC3CCCCCCC3)[C@@H]3C[C@@]2(O1)[C@H]1CCCCN31 (stereo partly drawn) [30A]	78	
CC(C)SC1CC2=CC(=O)O[C@@]23C[C@@H]1N1CCCC[C@@H]13 (stereo partly drawn) [37B]	97	
O=C1C=C2CC(NC3CC(O)C3)[C@@H]3C[C@@]2(O1)[C@H]1CCCCN31 (stereo partly drawn) [46B]	99	
CCCSC1CC2=CC(=O)O[C@@]23C[C@@H]1N1CCCC[C@@H]13 (stereo partly drawn) [58C]	30	
CO[C@H]1CC2=CC(=O)O[C@@]23C[C@@H]1N1CCCC[C@@H]13 [97-IIB]	97	
CCCN(CC#CC1=C[C@@H]2C[C@@]3(OC(=O)C=C13)[C@H]1CCCCN21)CCC [152A]	18	
COc1ccc2cc(C#CC3=C[C@@H]4C[C@@]5(OC(=O)C=C35)[C@H]3CCCCN43)ccc2c1 [157B]	80	
O=C1C=C2C(C#Cc3cccs3)=C[C@@H]3C[C@@]2(O1)[C@H]1CCCCN31 [170B]	64	
C#CC1=C[C@@H]2C[C@@]3(OC(=O)C=C13)[C@H]1CCCCN21 [207A]	99	
COc1cc(C#CC2=C[C@@H]3C[C@@]4(OC(=O)C=C24)[C@H]2CC[C@H](C(OC)OC)N32)cc(OC)c1 [222B]	70	
O=C1C=C2CC(SCc3cccs3)[C@@H]3C[C@@]2(O1)[C@H]1CCCCN31 (stereo partly drawn) [INVS-MG-14B]	83	
O=C1C=C2C=C[C@@H]3C[C@@]2(O1)[C@H]1CCCCN31 [MA1]		in vitro toxicity (cell survival) (some cell lines): higher toxicity effect on some cell lines
O=C(CCCC[C@@H]1SC[C@@H]2NC(=O)N[C@@H]21)NCCS[C@H]1CC2=CC(=O)O[C@@]23C[C@@H]1N1CCCC[C@@H]13 [SEC- BIO]	32	
NCCSC1CC2=CC(=O)O[C@@]23C[C@@H]1N1CCCC[C@@H]13 (stereo partly drawn) [compound 105]	99	
O=C1C=C2C=C[C@@H]3C[C@@]2(O1)[C@H]1CCCCN31 [securinine, Securinine]	32	binding to MPO in pull-down (MPO [2]): revealed the binding of MPO
